Measurements from ChEMBL document CHEMBL4219190, “Studies on synthesis of novel pyrido[2,3-d]pyrimidine derivatives, evaluation of their antimicrobial activity and molecular docking” (Bioorg Med Chem Lett, 2018).
Converted amounts (≈) assume the structure as drawn. The source made the active and inactive calls. No cut-off for these calls is given here.

Legend:
Bacillus subtilis [1] = experiment: Bactericidal activity against Bacillus subtilis MTCC 121 incubated for 24 hrs followed by transfer of microbial suspension to Mueller Hinton agar plates and measured after 24 hrs post transfer; format: functional; conditions: MTCC 121, 24 h
Candida albicans [2] = experiment: Inhibition of ergosterol in Candida albicans MTCC 183 after 20 hrs by UV spectrophotometric method; format: functional, organism-based
Bacillus subtilis [3] = experiment: Antibacterial activity against Bacillus subtilis MTCC 121 after 24 hrs by well diffusion method; format: functional; conditions: MTCC 121, 24 h
Staphylococcus aureus [4] = experiment: Antibacterial activity against Staphylococcus aureus MTCC 96 after 24 hrs by well diffusion method; format: functional; conditions: MTCC 96, 24 h
Staphylococcus aureus [5] = experiment: Antibacterial activity against Staphylococcus aureus MLS16 MTCC 2940 after 24 hrs by well diffusion method; format: functional; conditions: MLS16 MTCC 2940, 24 h
Micrococcus luteus [6] = experiment: Antibacterial activity against Micrococcus luteus MTCC 2470 after 24 hrs by well diffusion method; format: functional; conditions: MTCC 2470, 24 h
Raoultella planticola [7] = experiment: Antibacterial activity against Klebsiella planticola MTCC 530 after 24 hrs by well diffusion method; format: functional; conditions: MTCC 530, 24 h
Escherichia coli [8] = experiment: Antibacterial activity against Escherichia coli MTCC 739 after 24 hrs by well diffusion method; format: functional; conditions: MTCC 739, 24 h
Pseudomonas aeruginosa [9] = experiment: Antibacterial activity against Pseudomonas aeruginosa MTCC 2453 after 24 hrs by well diffusion method; format: functional; conditions: MTCC 2453, 24 h
Staphylococcus aureus [10] = experiment: Bactericidal activity against Staphylococcus aureus MTCC 96 incubated for 24 hrs followed by transfer of microbial suspension to Mueller Hinton agar plates and measured after 24 hrs post transfer; format: functional; conditions: MTCC 96, 24 h
Staphylococcus aureus [11] = experiment: Bactericidal activity against Staphylococcus aureus MLS16 MTCC 2940 incubated for 24 hrs followed by transfer of microbial suspension to Mueller Hinton agar plates and measured after 24 hrs post transfer; format: functional; conditions: MLS16 MTCC 2940, 24 h
Micrococcus luteus [12] = experiment: Bactericidal activity against Micrococcus luteus MTCC 2470 incubated for 24 hrs followed by transfer of microbial suspension to Mueller Hinton agar plates and measured after 24 hrs post transfer; format: functional; conditions: MTCC 2470, 24 h
Raoultella planticola [13] = experiment: Bactericidal activity against Klebsiella planticola MTCC 530 incubated for 24 hrs followed by transfer of microbial suspension to Mueller Hinton agar plates and measured after 24 hrs post transfer; format: functional; conditions: MTCC 530, 24 h
Escherichia coli [14] = experiment: Bactericidal activity against Escherichia coli MTCC 739 incubated for 24 hrs followed by transfer of microbial suspension to Mueller Hinton agar plates and measured after 24 hrs post transfer; format: functional; conditions: MTCC 739, 24 h
Pseudomonas aeruginosa [15] = experiment: Bactericidal activity against Pseudomonas aeruginosa MTCC 2453 incubated for 24 hrs followed by transfer of microbial suspension to Mueller Hinton agar plates and measured after 24 hrs post transfer; format: functional; conditions: MTCC 2453, 24 h
Candida albicans [16] = experiment: Antifungal activity against Candida albicans MTCC 183 after 24 hrs by well diffusion method; format: functional; conditions: MTCC 183, 24 h
Candida albicans [17] = experiment: Antifungal activity against Candida albicans MTCC 227 after 24 hrs by well diffusion method; format: functional; conditions: MTCC 227, 24 h
Candida albicans [18] = experiment: Antifungal activity against Candida albicans MTCC 854 after 24 hrs by well diffusion method; format: functional; conditions: MTCC 854, 24 h
Candida albicans [19] = experiment: Antifungal activity against Candida albicans MTCC 1637 after 24 hrs by well diffusion method; format: functional; conditions: MTCC 1637, 24 h
Candida albicans [20] = experiment: Antifungal activity against Candida albicans MTCC 3018 after 24 hrs by well diffusion method; format: functional; conditions: MTCC 3018, 24 h
Candida albicans [21] = experiment: Antifungal activity against Candida albicans MTCC 3017 after 24 hrs by well diffusion method; format: functional; conditions: MTCC 3017, 24 h
Candida albicans [22] = experiment: Antifungal activity against Candida albicans MTCC 3958 after 24 hrs by well diffusion method; format: functional; conditions: MTCC 3958, 24 h
Candida albicans [23] = experiment: Antifungal activity against Candida albicans MTCC 4748 after 24 hrs by well diffusion method; format: functional; conditions: MTCC 4748, 24 h
Candida albicans [24] = experiment: Antifungal activity against Candida albicans MTCC 7315 after 24 hrs by well diffusion method; format: functional; conditions: MTCC 7315, 24 h
Candida parapsilosis [25] = experiment: Antifungal activity against Candida parapsilosis MTCC 1744 after 24 hrs by well diffusion method; format: functional; conditions: MTCC 1744, 24 h
[Candida] aaseri [26] = Antifungal activity against Candida aaseri MTCC 1962 after 24 hrs by well diffusion method; format: functional; conditions: Yamadazyma aaseri, MTCC 1962, 24 h
Nakaseomyces glabratus [27] = experiment: Antifungal activity against Candida glabrata MTCC 3019 after 24 hrs by well diffusion method; format: functional
Pichia kudriavzevii [28] = experiment: Antifungal activity against Candida krusei MTCC 3020 after 24 hrs by well diffusion method; format: functional
Pichia sporocuriosa [29] = experiment: Antifungal activity against Issatchenkia hanoiensis MTCC 4755 after 24 hrs by well diffusion method; format: functional; conditions: MTCC 4755, 24 h
Candida albicans [30] = experiment: Fungicidal activity against Candida albicans MTCC 183 incubated for 24 hrs followed by transfer of microbial suspension to Sabouraud dextrose agar plates and measured after 24 hrs post transfer; format: functional; conditions: MTCC 183, 24 h
Candida albicans [31] = experiment: Fungicidal activity against Candida albicans MTCC 227 incubated for 24 hrs followed by transfer of microbial suspension to Sabouraud dextrose agar plates and measured after 24 hrs post transfer; format: functional; conditions: MTCC 227, 24 h
Candida albicans [32] = experiment: Fungicidal activity against Candida albicans MTCC 854 incubated for 24 hrs followed by transfer of microbial suspension to Sabouraud dextrose agar plates and measured after 24 hrs post transfer; format: functional; conditions: MTCC 854, 24 h
Candida albicans [33] = experiment: Fungicidal activity against Candida albicans MTCC 1637 incubated for 24 hrs followed by transfer of microbial suspension to Sabouraud dextrose agar plates and measured after 24 hrs post transfer; format: functional; conditions: MTCC 1637, 24 h
Candida albicans [34] = experiment: Fungicidal activity against Candida albicans MTCC 3017 incubated for 24 hrs followed by transfer of microbial suspension to Sabouraud dextrose agar plates and measured after 24 hrs post transfer; format: functional; conditions: MTCC 3017, 24 h
Candida albicans [35] = experiment: Fungicidal activity against Candida albicans MTCC 3018 incubated for 24 hrs followed by transfer of microbial suspension to Sabouraud dextrose agar plates and measured after 24 hrs post transfer; format: functional; conditions: MTCC 3018, 24 h
Candida albicans [36] = experiment: Fungicidal activity against Candida albicans MTCC 3958 incubated for 24 hrs followed by transfer of microbial suspension to Sabouraud dextrose agar plates and measured after 24 hrs post transfer; format: functional; conditions: MTCC 3958, 24 h
Candida albicans [37] = experiment: Fungicidal activity against Candida albicans MTCC 4748 incubated for 24 hrs followed by transfer of microbial suspension to Sabouraud dextrose agar plates and measured after 24 hrs post transfer; format: functional; conditions: MTCC 4748, 24 h
Candida albicans [38] = experiment: Fungicidal activity against Candida albicans MTCC 7315 incubated for 24 hrs followed by transfer of microbial suspension to Sabouraud dextrose agar plates and measured after 24 hrs post transfer; format: functional; conditions: MTCC 7315, 24 h
Candida parapsilosis [39] = experiment: Fungicidal activity against Candida parapsilosis MTCC 1744 incubated for 24 hrs followed by transfer of microbial suspension to Sabouraud dextrose agar plates and measured after 24 hrs post transfer; format: functional; conditions: Lodderomyces parapsilosis, MTCC 1744, 24 h
[Candida] aaseri [40] = Fungicidal activity against Candida aaseri MTCC 1962 incubated for 24 hrs followed by transfer of microbial suspension to Sabouraud dextrose agar plates and measured after 24 hrs post transfer; format: functional; conditions: Yamadazyma aaseri, MTCC 1962, 24 h
Nakaseomyces glabratus [41] = experiment: Fungicidal activity against Candida glabrata MTCC 3019 incubated for 24 hrs followed by transfer of microbial suspension to Sabouraud dextrose agar plates and measured after 24 hrs post transfer; format: functional
Pichia kudriavzevii [42] = experiment: Fungicidal activity against Candida krusei MTCC 3020 incubated for 24 hrs followed by transfer of microbial suspension to Sabouraud dextrose agar plates and measured after 24 hrs post transfer; format: functional
Pichia sporocuriosa [43] = experiment: Fungicidal activity against Issatchenkia hanoiensis MTCC 4755 incubated for 24 hrs followed by transfer of microbial suspension to Sabouraud dextrose agar plates and measured after 24 hrs post transfer; format: functional; conditions: MTCC 4755, 24 h
Bacillus subtilis [44] = experiment: Antibiofilm activity against Bacillus subtilis MTCC 121 after 24 hrs by crystal violet staining-based assay; format: functional, organism-based; conditions: Bacillus subtilis, MTCC 121, 24 h; read-out: IC50
Staphylococcus aureus [45] = experiment: Antibiofilm activity against Staphylococcus aureus MTCC 96 after 24 hrs by crystal violet staining-based assay; format: functional, organism-based; conditions: Staphylococcus aureus, MTCC 96, 24 h; read-out: IC50
Staphylococcus aureus [46] = experiment: Antibiofilm activity against Staphylococcus aureus MLS16 MTCC 2940 after 24 hrs by crystal violet staining-based assay; format: functional, organism-based; conditions: Staphylococcus aureus, MLS16 MTCC 2940, 24 h; read-out: IC50
Pseudomonas aeruginosa [47] = experiment: Antibiofilm activity against Pseudomonas aeruginosa MTCC 2453 after 24 hrs by crystal violet staining-based assay; format: functional, organism-based; conditions: Pseudomonas aeruginosa, MTCC 2453, 24 h; read-out: IC50
Raoultella planticola [48] = experiment: Antibiofilm activity against Klebsiella planticola MTCC 530 after 24 hrs by crystal violet staining-based assay; format: functional, organism-based; conditions: Klebsiella planticola, MTCC 530, 24 h; read-out: IC50

MIC (Bacillus subtilis [3]): 15.6 µg/mL (≈ 32.7 µM) | MIC (Staphylococcus aureus [4]): 7.8 µg/mL (≈ 16.3 µM) | MIC (Staphylococcus aureus [5]): 15.6 µg/mL (≈ 32.7 µM) | MIC (Micrococcus luteus [6]): 15.6 µg/mL (≈ 32.7 µM) | MIC (Escherichia coli [8]): 15.6 µg/mL (≈ 32.7 µM) | MIC (Pseudomonas aeruginosa [9]): 31.2 µg/mL (≈ 65.3 µM) | MIC (Candida albicans [16]): 3.9 µg/mL (≈ 8.17 µM) | MIC (Candida albicans [17]): 3.9 µg/mL (≈ 8.17 µM) | MIC (Candida albicans [18]): 7.8 µg/mL (≈ 16.3 µM) | MIC (Candida albicans [19]): 7.8 µg/mL (≈ 16.3 µM) | MIC (Candida albicans [20]): 15.6 µg/mL (≈ 32.7 µM) | MIC (Candida albicans [21]): 3.9 µg/mL (≈ 8.17 µM) | MIC (Candida albicans [22]): 7.8 µg/mL (≈ 16.3 µM) | MIC (Candida albicans [23]): 15.6 µg/mL (≈ 32.7 µM) | MIC (Candida albicans [24]): 31.2 µg/mL (≈ 65.3 µM) | MIC (Candida parapsilosis [25]): 31.2 µg/mL (≈ 65.3 µM) | MIC ([Candida] aaseri [26]): 7.8 µg/mL (≈ 16.3 µM) | MIC (Nakaseomyces glabratus [27]): inactive | MIC (Pichia kudriavzevii [28]): inactive | MIC (Pichia sporocuriosa [29]): 15.6 µg/mL (≈ 32.7 µM) | IC50 (Bacillus subtilis [44]): 10.8 µg/mL (≈ 22.6 µM) | IC50 (Staphylococcus aureus [45]): 5.4 µg/mL (≈ 11.3 µM) | IC50 (Staphylococcus aureus [46]): 10.8 µg/mL (≈ 22.6 µM) | IC50 (Pseudomonas aeruginosa [47]): 21.6 µg/mL (≈ 45.2 µM)
SMILES: CN1CCN(C(=O)c2nc(-c3ccccc3)c3c(C(F)(F)F)cc(-c4ccccc4)nc3n2)CC1
MBC (Bacillus subtilis [1]): 31.2 µg/mL (≈ 65.3 µM) | inhibition (Candida albicans [2]): Dose-dependent effect | MIC (Raoultella planticola [7]): 31.2 µg/mL (≈ 65.3 µM) | MBC (Staphylococcus aureus [10]): 15.6 µg/mL (≈ 32.7 µM) | MBC (Staphylococcus aureus [11]): 31.2 µg/mL (≈ 65.3 µM) | MBC (Micrococcus luteus [12]): 15.6 µg/mL (≈ 32.7 µM) | MBC (Raoultella planticola [13]): 62.4 µg/mL (≈ 131 µM) | MBC (Escherichia coli [14]): 31.2 µg/mL (≈ 65.3 µM) | MBC (Pseudomonas aeruginosa [15]): 62.4 µg/mL (≈ 131 µM) | MFC (Candida albicans [30]): 3.9 µg/mL (≈ 8.17 µM) | MFC (Candida albicans [31]): 7.8 µg/mL (≈ 16.3 µM) | MFC (Candida albicans [32]): 15.6 µg/mL (≈ 32.7 µM) | MFC (Candida albicans [33]): 15.6 µg/mL (≈ 32.7 µM) | MFC (Candida albicans [34]): 7.8 µg/mL (≈ 16.3 µM) | MFC (Candida albicans [35]): 31.2 µg/mL (≈ 65.3 µM) | MFC (Candida albicans [36]): 15.6 µg/mL (≈ 32.7 µM) | MFC (Candida albicans [37]): 31.2 µg/mL (≈ 65.3 µM) | MFC (Candida albicans [38]): 62.5 µg/mL (≈ 131 µM) | MFC (Candida parapsilosis [39]): 62.5 µg/mL (≈ 131 µM) | MFC ([Candida] aaseri [40]): 15.6 µg/mL (≈ 32.7 µM) | MFC (Nakaseomyces glabratus [41]): inactive | MFC (Pichia kudriavzevii [42]): inactive | MFC (Pichia sporocuriosa [43]): 31.2 µg/mL (≈ 65.3 µM) | IC50 (Raoultella planticola [48]): 21.6 µg/mL (≈ 45.2 µM)
